Assay results as given in PubChem BioAssay (NCI).
Several values for one entry are separate records, joined by “and”; a condition that tells them apart may be missing. Identical values can stand only once.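 Each compound was tested at five concentrations against cells in 96-well plates for 48 hours. The concentration for 50% growth inhibition is given as GI50. TGI: total growth inhibition.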

What was measured:
Test in all cases: NCI-60 cell line screen, 48 h
SF-539 CNS = system: SF-539 CNS
RXF 393 renal = system: RXF 393 renal
SK-MEL-5 melanoma = system: SK-MEL-5 melanoma
TK-10 renal = system: TK-10 renal
MALME-3M melanoma = system: MALME-3M melanoma
CCRF-CEM leukemia = system: CCRF-CEM leukemia
A498 renal = system: A498 renal
NCI/ADR-RES ovarian = system: NCI/ADR-RES ovarian
UO-31 renal = system: UO-31 renal
NCI-H23 lung = system: NCI-H23 lung

SMILES | GI50 (SF-539 CNS) | TGI (SF-539 CNS) | GI50 (RXF 393 renal) | TGI (RXF 393 renal) | GI50 (SK-MEL-5 melanoma) | TGI (SK-MEL-5 melanoma) | GI50 (TK-10 renal) | TGI (TK-10 renal) | GI50 (MALME-3M melanoma) | TGI (MALME-3M melanoma) | GI50 (CCRF-CEM leukemia) | TGI (CCRF-CEM leukemia) | GI50 (A498 renal) | TGI (A498 renal) | GI50 (NCI/ADR-RES ovarian) | TGI (NCI/ADR-RES ovarian) | GI50 (UO-31 renal) [µM] | TGI (UO-31 renal) | GI50 (NCI-H23 lung) | TGI (NCI-H23 lung)
CCc1nc(N)nc(N)c1C#CC(C)c1cc(-c2ccnc(C)c2)c2oc(C)nc2c1 (stereo not drawn) | < 0.01 µM | 2.4 µM | 0.0395 µM | 2.71 µM | < 0.01 µM | 1.49 µM | 0.126 µM | 12 µM | 2.11 µM | 14.4 µM | < 0.01 µM | 29.9 µM | 0.117 µM | 4.89 µM | 0.0146 µM | 10.1 µM | 0.0181 | 11.5 µM | < 0.01 µM | 5.31 µM
Cc1cc(Cl)ccc1Nc1nc(C(F)(F)F)ccc1C(=O)Nc1cccc(C(F)(F)F)c1 | 3.27 µM | 14.7 µM | 3.58 µM | 27.5 µM | 2.79 µM | 9.34 µM | 4.4 µM | 21 µM | 1.97 µM | 9.17 µM | 3.41 µM | 14.7 µM | 2.79 µM | 7.43 µM | 3.38 µM | 14.7 µM | 3.71 | 16 µM | 2.85 µM | 11.1 µM
COc1cc2nncc(SCc3ccc(Cl)c(Cl)c3)c2cc1OC | – | > 100 µM | – | > 100 µM | – | > 100 µM | – | > 100 µM | – | > 100 µM | – | > 100 µM | – | > 100 µM | – | > 100 µM | – | > 100 µM | – | > 100 µM
Nc1ccccc1C#C/C=C\C#Cc1ccccc1F | 3.82 µM | 15.7 µM | 17.8 µM | 57.5 µM | 2.73 µM | 12.3 µM | 6.42 µM | 25.6 µM | 2.62 µM | 13.9 µM | 0.729 µM | 7.14 µM | 7.66 µM | 21 µM | 2.47 µM | 6.73 µM | 11.9 | 35 µM | 10.4 µM | 26.6 µM
O=C1c2ccn(CCCCN(CCO)CCO)c2C(=O)c2c1c(O)c1ccccc1c2O | 7.88 µM | > 80.6 µM | 5.19 µM | > 58.6 µM | 13.2 µM | 78.9 µM | 6.66 µM | 29.6 µM | 10 µM | 35.2 µM | 2.07 µM | 11.2 µM | 13.4 µM | 39.7 µM | 3.31 µM | 12.7 µM | 12.5 | > 100 µM | 1.66 µM | 3.02 µM
COc1cc2c3cc1Oc1c(OC)c(OC)cc4c1C(Cc1ccc(cc1)Oc1cc(ccc1O)CC3N(C)CC2)N(C)CC4 (stereo not drawn) | 11.4 µM and 1.56 µM | 23.6 µM and 3.81 µM | – | 5.69 µM and 4.03 µM | 6.2 µM and 1.81 µM | 18.7 µM and 3.72 µM | – | 45 µM and 25.9 µM | – | 27 µM and 26 µM | 6.96 µM and 2.78 µM | 58.3 µM and 24.7 µM | – | 32.9 µM | – | 60.5 µM | – | 21.5 µM and 20.6 µM | – | 48.1 µM and 26.3 µM
Oc1ccc(O)c2c1C1(Cl)C(Cl)=C(Cl)C2(Cl)C1(Cl)Cl | 4.38 µM | 18.7 µM | 3.31 µM | 11.2 µM | 5.09 µM | 17 µM | 4.96 µM | 27.7 µM | 2.31 µM | 9.95 µM | 4.14 µM | > 100 µM | 1.83 µM | 6.23 µM | 3.03 µM | 9.53 µM | 2.43 | 10.6 µM | 5.17 µM | 22.1 µM
COc1cc(NC(=O)c2cc(O)c(C/C=C(\C)CCC=C(C)C)c(O)c2)cc2c1O[C@]1(C)CC[C@@H](O)C(C)(C)[C@H]1C2 | 0.348 µM | 2.38 µM | 0.209 µM | 0.747 µM | 1.34 µM | 2.9 µM | 3.42 µM | 13.7 µM | 1.62 µM | 5.39 µM | 0.463 µM | 7.21 µM | 0.963 µM | 7.9 µM | 7.89 µM | 44.5 µM | 2.7 | 9.71 µM | 2.38 µM | 12.8 µM
Nc1nc(Cl)nc2c1ncn2[C@@H]1O[C@H](COS(N)(=O)=O)[C@@H](O)[C@H]1O | 0.0217 µM | 0.0563 µM and 0.0533 µM | 0.019 µM and 0.0229 µM | 0.0475 µM and 0.0496 µM | 0.0168 µM and 0.0179 µM | 0.0313 µM and 0.033 µM | 0.021 µM and 0.0211 µM | 0.0581 µM and 0.0654 µM | 0.0188 µM and 0.0209 µM | 0.0403 µM and 0.0456 µM | 0.0159 µM and 0.027 µM | 0.101 µM | 0.00943 µM and 0.0148 µM | 0.0254 µM and 0.0309 µM | 0.0121 µM and 0.0196 µM | 0.054 µM and 0.145 µM | 0.0193 | 0.0475 µM | 0.021 µM and 0.0288 µM | 0.0538 µM and 0.0982 µM
COc1ccc(OC)c(/C=N/N=C2\C(=O)Nc3c(Cl)cc(Cl)cc32)c1 | – | > 100 µM | – | > 100 µM | – | > 100 µM | – | > 100 µM | – | > 100 µM | – | > 100 µM | – | > 100 µM | – | > 100 µM | – | > 100 µM | – | > 100 µM
